ChEMBL document CHEMBL1909046, “DrugMatrix in vitro pharmacology data”

Experiments:
[1] = DRUGMATRIX: GABAA, Chloride Channel, TBOB radioligand binding (ligand: [3H] TBOB); type: cell membranes, Rattus norvegicus, Wistar, Cerebral cortex, Membrane; conditions: Not Active = under 50% inhibition at 10 µM
Histamine H2 receptor = Histamine H2 receptor (Homo sapiens, UniProt P25021); type: cell membranes, CHO-K1, Membrane; conditions: cho-k1; note: in other assays of this panel Not Active means under 50% inhibition at 10 µM
Chain of Histamine H2 receptor (P25021 whole entry): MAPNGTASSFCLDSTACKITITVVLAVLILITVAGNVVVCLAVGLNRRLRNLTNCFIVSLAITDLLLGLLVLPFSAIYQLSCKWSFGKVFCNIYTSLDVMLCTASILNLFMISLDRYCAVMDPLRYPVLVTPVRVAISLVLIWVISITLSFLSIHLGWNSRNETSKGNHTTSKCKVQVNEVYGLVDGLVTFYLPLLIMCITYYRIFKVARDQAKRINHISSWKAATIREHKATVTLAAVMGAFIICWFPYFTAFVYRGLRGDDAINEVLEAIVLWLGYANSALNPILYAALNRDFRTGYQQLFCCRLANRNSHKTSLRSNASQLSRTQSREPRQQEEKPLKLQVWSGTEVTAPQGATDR

[2] = target: Protein phosphatase 3 catalytic subunit alpha (Homo sapiens, UniProt Q08209); parameters: species or system Escherichia coli;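 note: inhibition of calcineurin (PP2B) enzyme activity, measured with DiFMUP as the substrate; in other assays of this panel Not Active means under 50% inhibition at 10 µM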
[3] = target: T1, Muscarinic acetylcholine receptor M2 (Homo sapiens, UniProt P08172); type: cell membranes, CHO-K1, Membrane; conditions: cho-k1; note: in other assays of this panel Not Active means under 50% inhibition at 10 µM
T1 sequence (P08172 whole entry): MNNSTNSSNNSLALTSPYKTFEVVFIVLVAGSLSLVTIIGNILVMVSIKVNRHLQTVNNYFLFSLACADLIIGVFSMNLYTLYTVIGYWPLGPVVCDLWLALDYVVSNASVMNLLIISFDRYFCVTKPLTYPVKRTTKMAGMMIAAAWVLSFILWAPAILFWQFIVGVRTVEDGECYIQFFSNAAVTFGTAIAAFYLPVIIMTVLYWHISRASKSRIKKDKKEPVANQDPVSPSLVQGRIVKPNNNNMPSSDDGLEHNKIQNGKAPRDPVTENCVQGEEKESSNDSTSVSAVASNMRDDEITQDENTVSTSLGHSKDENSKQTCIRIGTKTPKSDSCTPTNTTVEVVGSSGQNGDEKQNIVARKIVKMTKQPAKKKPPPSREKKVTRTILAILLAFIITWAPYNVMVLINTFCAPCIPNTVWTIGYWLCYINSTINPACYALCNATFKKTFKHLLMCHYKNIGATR

[4] = DRUGMATRIX: GABAA, Flunitrazepam, Central radioligand binding (ligand: [3H] Flunitrazepam); type: cell membranes, Rattus norvegicus, Wistar, Brain, Membrane; conditions: Not Active = under 50% inhibition at 10 µM
[5] = target: T2, Alpha-2A adrenergic receptor (Homo sapiens, UniProt P08913); type: cell membranes, Sf9, Membrane; conditions: sf9; note: in other assays of this panel Not Active means under 50% inhibition at 10 µM
T2 sequence (P08913 whole entry): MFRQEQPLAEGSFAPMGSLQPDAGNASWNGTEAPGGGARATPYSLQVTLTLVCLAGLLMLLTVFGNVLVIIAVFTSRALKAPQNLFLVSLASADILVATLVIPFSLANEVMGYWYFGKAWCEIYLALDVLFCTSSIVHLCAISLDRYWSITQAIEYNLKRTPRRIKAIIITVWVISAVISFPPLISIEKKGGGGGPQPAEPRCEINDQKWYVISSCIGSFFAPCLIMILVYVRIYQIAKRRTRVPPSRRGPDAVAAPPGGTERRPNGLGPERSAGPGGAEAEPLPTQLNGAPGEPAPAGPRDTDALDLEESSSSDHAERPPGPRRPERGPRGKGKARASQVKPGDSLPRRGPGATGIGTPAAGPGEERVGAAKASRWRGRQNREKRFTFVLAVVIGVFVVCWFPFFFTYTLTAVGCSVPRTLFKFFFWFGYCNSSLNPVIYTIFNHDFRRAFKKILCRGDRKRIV

[6] = DRUGMATRIX: Glutamate, NMDA, Phencyclidine radioligand binding (ligand: [3H] TCP); type: cell membranes, Rattus norvegicus, Wistar, Cerebral cortex, Membrane; conditions: Not Active = under 50% inhibition at 10 µM

NC(=O)N1c2ccccc2C=Cc2ccccc21 [CARBAMAZEPINE]
Not Active: IC50 [1] | Ki [1] | IC50 (Histamine H2 receptor) | IC50 [2] | IC50 [3] | IC50 [4] | Ki [4] | IC50 [5] | IC50 [6] | Ki [6]

CCOC(=O)n1ccn(C)c1=S [CARBIMAZOLE]
Not Active: IC50 [1] | Ki [1] | IC50 (Histamine H2 receptor) | IC50 [2] | IC50 [3] | IC50 [4] | Ki [4] | IC50 [5] | IC50 [6] | Ki [6]

Oc1ccccc1O [CATECHOL]
Not Active: IC50 [1] | Ki [1] | IC50 (Histamine H2 receptor) | IC50 [2] | IC50 [3] | IC50 [4] | Ki [4] | IC50 [5] | IC50 [6] | Ki [6]

CO[C@@]1(NC(=O)CSCC#N)C(=O)N2C(C(=O)O)=C(CSc3nnnn3C)CS[C@@H]21 [CEFMETAZOLE]
Not Active: IC50 [1] | Ki [1] | IC50 (Histamine H2 receptor) | IC50 [2] | IC50 [3] | IC50 [4] | Ki [4] | IC50 [5] | IC50 [6] | Ki [6]

CN(C(=O)CCCOc1ccc2[nH]c(=O)ccc2c1)C1CCCCC1 [CILOSTAMIDE]
Not Active: IC50 [1] | Ki [1] | IC50 (Histamine H2 receptor) | IC50 [2] | IC50 [3] | IC50 [4] | Ki [4] | IC50 [5] | IC50 [6] | Ki [6]

CC(C)(Oc1ccc(C2CC2(Cl)Cl)cc1)C(=O)O (stereo not given) [CIPROFIBRATE]
Not Active: IC50 [1] | Ki [1] | IC50 (Histamine H2 receptor) | IC50 [2] | IC50 [3] | IC50 [4] | Ki [4] | IC50 [5] | IC50 [6] | Ki [6]

Nc1nc(Cl)nc2c1ncn2[C@H]1C[C@H](O)[C@@H](CO)O1 [CLADRIBINE]
Not Active: IC50 [1] | Ki [1] | IC50 (Histamine H2 receptor) | IC50 [2] | IC50 [3] | IC50 [4] | Ki [4] | IC50 [5] | IC50 [6] | Ki [6]

CC[C@H]1OC(=O)[C@H](C)[C@@H](O[C@H]2C[C@@](C)(OC)[C@@H](O)[C@H](C)O2)[C@H](C)[C@@H](O[C@@H]2O[C@H](C)C[C@H](N(C)C)[C@H]2O)[C@](C)(OC)C[C@@H](C)C(=O)[C@H](C)[C@@H](O)[C@]1(C)O [CLARITHROMYCIN]
Not Active: IC50 [1] | Ki [1] | IC50 (Histamine H2 receptor) | IC50 [2] | IC50 [3] | IC50 [4] | Ki [4] | IC50 [5] | IC50 [6] | Ki [6]

CCC[C@@H]1C[C@@H](C(=O)N[C@@H]([C@H]2O[C@H](SC)[C@H](O)[C@@H](O)[C@H]2O)[C@H](C)Cl)N(C)C1 [CLINDAMYCIN]
Not Active: IC50 [1] | Ki [1] | IC50 (Histamine H2 receptor) | IC50 [2] | IC50 [3] | IC50 [4] | Ki [4] | IC50 [5] | IC50 [6] | Ki [6]

O=C(O)c1cc(=O)c2c(OCC(O)COc3cccc4oc(C(=O)O)cc(=O)c34)cccc2o1 [CROMOLYN]
Not Active: IC50 [1] | Ki [1] | IC50 (Histamine H2 receptor) | IC50 [2] | IC50 [3] | IC50 [4] | Ki [4] | IC50 [5] | IC50 [6] | Ki [6]

O=P1(N(CCCl)CCCl)NCCCO1 (stereo not given) [CYCLOPHOSPHAMIDE ANHYDROUS]
Not Active: IC50 [1] | Ki [1] | IC50 (Histamine H2 receptor) | IC50 [2] | IC50 [3] | IC50 [4] | Ki [4] | IC50 [5] | IC50 [6] | Ki [6]
